These results are taken from patent US9133158B2, “Bicyclic dihydroisoquinoline-1-one derivatives” (Hoffmann-La Roche Inc., priority 2011, dated 2015).

One assay deals with T1, human CYP11B1 (Homo sapiens, UniProt P15538).
T1 construct: expressed in transfected cells
T1 sequence (P15538 25-503): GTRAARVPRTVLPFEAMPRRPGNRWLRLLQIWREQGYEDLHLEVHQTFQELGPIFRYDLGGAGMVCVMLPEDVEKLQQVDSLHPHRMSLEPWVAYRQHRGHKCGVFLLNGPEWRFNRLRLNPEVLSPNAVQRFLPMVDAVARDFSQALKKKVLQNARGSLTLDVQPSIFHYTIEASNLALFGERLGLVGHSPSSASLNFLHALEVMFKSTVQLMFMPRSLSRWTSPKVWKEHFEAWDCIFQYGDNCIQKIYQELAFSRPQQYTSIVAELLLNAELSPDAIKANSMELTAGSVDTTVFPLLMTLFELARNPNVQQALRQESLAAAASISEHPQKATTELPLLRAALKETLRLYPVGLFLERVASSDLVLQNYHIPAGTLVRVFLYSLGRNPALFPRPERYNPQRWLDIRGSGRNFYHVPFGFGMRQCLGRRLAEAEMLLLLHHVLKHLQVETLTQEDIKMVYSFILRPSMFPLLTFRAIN
The experiment in a line: G-402 cellular enzyme assay, human CYP11B1 (cortisol release, HTRF). It is filed as cell-based. Conditions: G-402 cells, 1 μM Deoxycortisol. The source says: (§1) Herein we identified the use of the G-402 cell line as a host cell to ectopically express (transiently or stably) enzymes of the CYP11 family. Specifically we developed stable G-402 cells expressing ectopically human CYP11B1, human CYP11B2, human CYP11A1, cynmolgus CYP11B1 or cynomolgus CYP11B2 enzyme activity. Importantly the identified cell line G-402 expresses co-factors (adrenodoxin and adrenodoxin reductase) important for the activity of the CYP11 family and no relevant enzyme activity of the CYP11 family (in comparison to H295R cells) was detected in these cells. Therefore the G-402 cell line is uniquely suited as a host cell for the ectopic expression of enzymes from the CYP11 family.
(§2) G-402 cells can be obtained from ATCC(CRL-1440) and were originally derived from a renal leiomyoblastoma.
(§3) The expression plasmids contain the ORF for either human/cyno CYP11B1 or CYP11B2 under the control of a suitable promoter (CMV-promoter) and a suitable resistance marker (neomycin). Using standard techniques the expression plasmid is transfected into G-402 cells and these cells are then selected for expressing the given resistance markers. Individual cell-clones are then selected and assessed for displaying the desired enzymatic activity using 11-Deoxycorticosterone (Cyp11B2) or 11-Deoxycortisol (Cyp11B1) as a substrate.
(§4) G-402 cells expressing CYP11 constructs were established as described above and maintained in McCoy's 5a Medium Modified, ATCC Catalog No. 30-2007 containing 10% FCS and 400 μg/ml G418 (Geneticin) at 37° C. under an atmosphere of 5% CO2/95% air.
(§5) Cellular enzyme assays were performed in DMEM/F12 medium containing 2.5% charcoal treated FCS and appropriate concentration of substrate (0.3-10 uM 11-Deoxycorticosterone, 11-Deoxycortisol or Corticosterone). For assaying enzymatic activity, cells were plated onto 96 well plates and incubated for 16 h. An aliquot of the supernatant is then transferred and analyzed for the concentration of the expected product (Aldosterone for CYP11B2; Cortisol for CYP11B1). The concentrations of these steroids can be determined using HTRF assays from CisBio analyzing either Aldosterone or Cortisol.
(§6) Inhibition of the release of produced steroids can be used as a measure of the respective enzyme inhibition by test compounds added during the cellular enzyme assay. The dose dependent inhibition of enzymatic activity by a compound is calculated by means of plotting added inhibitor concentrations (x-axes) vs. measured steroid/product level (y-axes). The inhibition is then calculated by fitting the following 4-parameter sigmoidal function (Morgan-Mercer-Flodin (MMF) model) to the raw data points using the least squares method:
(§7) [formula] wherein, A is the maximum y value, B is the EC50 factor determined using XLFit, C is the minimum y value and D is the slope value.
(§8) EC50 values for compounds claimed herein were tested with the G402-based assay system described. Cyp11B2 enzyme activity was tested in presence of 1 μM Deoxycorticosterone and variable amounts of inhibitors; Cyp11B1 enzyme activity was tested in presence of 1 μM Deoxycortisol and variable amounts of inhibitors.

In the next assay the target is T2, human CYP11B2 (Homo sapiens, UniProt P19099).
T2 construct: expressed in transfected cells
T2 sequence (P19099 25-503): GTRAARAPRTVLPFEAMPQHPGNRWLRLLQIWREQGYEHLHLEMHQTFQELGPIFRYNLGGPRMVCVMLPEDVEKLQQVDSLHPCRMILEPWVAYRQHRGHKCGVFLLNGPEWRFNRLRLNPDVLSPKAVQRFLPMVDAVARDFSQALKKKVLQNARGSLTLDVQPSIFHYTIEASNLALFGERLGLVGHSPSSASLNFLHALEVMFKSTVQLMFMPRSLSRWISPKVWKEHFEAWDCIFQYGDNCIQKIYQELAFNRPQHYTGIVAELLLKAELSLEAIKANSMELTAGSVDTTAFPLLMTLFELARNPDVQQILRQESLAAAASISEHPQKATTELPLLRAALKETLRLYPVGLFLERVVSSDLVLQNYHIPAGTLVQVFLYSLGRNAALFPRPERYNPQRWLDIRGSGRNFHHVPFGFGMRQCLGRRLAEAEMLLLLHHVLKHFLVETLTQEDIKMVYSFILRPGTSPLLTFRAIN
Kind of assay: G-402 cellular enzyme assay, human CYP11B2 (aldosterone release, HTRF). It is filed as cell-based. Conditions: G-402 cells, 1 μM Deoxycorticosterone.
From the text: as §1, §2, §3, §4, §5, §6, §7, §8

Turning to `O=C1c2ccc(Cl)cc2CCN1c1cncc(CNc2ccc(F)cc2)c1` [Example 258, 6-Chloro-2-{5-[(4-fluoro-phenylamino)-methyl]-pyridin-3-yl}-3,4-dihydro-2H-isoquinolin-1-one], the EC50 amounted to 41.8 nM at human CYP11B1 and 3.7 nM at human CYP11B2.

For `CC1(C)c2cc(Cl)ccc2C(=O)N1c1cncc(CN2CCCS2(=O)=O)c1` [Example 409, 5-Chloro-2-[5-(1,1-dioxo-1λ6-isothiazolidin-2-ylmethyl)-pyridin-3-yl]-3,3-dimethyl-2,3-dihydro-isoindol-1-one], the EC50 at human CYP11B1 was found to be 429 nM; on human CYP11B2 it was 6.9 nM.

Consider `O=C1c2ccc(Cl)cc2CCN1c1cncc(CN2CCCCS2(=O)=O)c1` [Example 81, 6-Chloro-2-[5-(1,1-dioxo-1λ^6-[1,2]thiazinan-2-ylmethyl)-pyridin-3-yl]-3,4-dihydro-2H-isoquinolin-1-one], for which the EC50 at human CYP11B1 was found to be 2360 nM; at human CYP11B2 it was 178 nM.

Regarding `CC(O)(c1ccccc1)c1cncc(N2CCc3cc(Cl)ccc3C2=O)c1` (stereo not drawn) [Example 35, 6-Chloro-2-[5-(1-hydroxy-1-phenyl-ethyl)-pyridin-3-yl]-3,4-dihydro-2H-isoquinolin-1-one], the EC50 worked out at 146 nM at human CYP11B1 and 18.8 nM at human CYP11B2.

For the molecule `O=C1c2ccc(Cl)cc2CCN1c1cncc(CN2CCC(F)(F)C2)c1` [Example 169, 6-Chloro-2-[5-(3,3-difluoro-pyrrolidin-1-ylmethyl)-pyridin-3-yl]-3,4-dihydro-2H-isoquinolin-1-one], the EC50 came out at 38.1 nM at human CYP11B1 and 5.2 nM at human CYP11B2.

For `CCC(=O)NCc1cncc(N2C(=O)c3ccc(Cl)cc3C2CC)c1` (single isomer, unassigned) [Example 399, N-[5-((S or R)-5-Chloro-3-ethyl-1-oxo-1,3-dihydro-isoindol-2-yl)-pyridin-3-ylmethyl]-propionamide], the concentration giving a half-maximal response (EC50) came to 11300 nM on human CYP11B1 and 313 nM on human CYP11B2.

`CCC1c2cc(Cl)ccc2C(=O)N1c1cncc(F)c1` (single isomer, unassigned) [Example 309, (R or S)-5-Chloro-3-ethyl-2-(5-fluoro-pyridin-3-yl)-2,3-dihydro-isoindol-1-one]: the results for the EC50 at human CYP11B1 and on human CYP11B2 were 2450 nM and 16 nM, respectively.

As to `CCS(=O)(=O)N1CCCC(c2cncc(N3C(=O)c4ccc(Cl)cc4C3(C)C)n2)C1` (stereo not drawn) [Example 464, 5-Chloro-2-[6-(1-ethanesulfonyl-piperidin-3-yl)-pyrazin-2-yl]-3,3-dimethyl-2,3-dihydro-isoindol-1-one], the EC50 amounted to 1650 nM on human CYP11B1 and 2.8 nM on human CYP11B2.

Consider `O=C(c1cncc(N2CCc3cc(Cl)ccc3C2=O)c1)N1CCCC1` [Example 42, 6-Chloro-2-[5-(pyrrolidine-1-carbonyl)-pyridin-3-yl]-3,4-dihydro-2H-isoquinolin-1-one], for which the concentration for a half-maximal effect (EC50) on human CYP11B1 is 7860 nM; on human CYP11B2 it was 327 nM.

Regarding `COC(C)c1cncc(N2CCc3cc(Cl)ccc3C2=O)c1` (stereo not drawn) [Example 16, 6-Chloro-2-[5-(1-methoxy-ethyl)-pyridin-3-yl]-3,4-dihydro-2H-isoquinolin-1-one], the half-maximal effective concentration (EC50) is 126 nM at human CYP11B1 and 19.3 nM on human CYP11B2.

Take `O=C1c2ccc(Cl)cc2CCN1c1cncc(OC2CC2)c1` [Example 68, 6-Chloro-2-(5-cyclopropoxy-pyridin-3-yl)-3,4-dihydro-2H-isoquinolin-1-one]: the EC50 stood at 157 nM on human CYP11B1 and 6.7 nM at human CYP11B2.

Regarding `C[C@H](O)c1cncc(N2CCc3cc(Cl)ccc3C2=O)c1` [Example 15, 6-Chloro-2-[5-((S)-1-hydroxy-ethyl)-pyridin-3-yl]-3,4-dihydro-2H-isoquinolin-1-one], the EC50 at human CYP11B1 is 913 nM; at human CYP11B2, 68.2 nM.

Consider `COCc1cncc(N2CCc3cc(Cl)ccc3C2=O)c1` [Example 193, 6-Chloro-2-(5-methoxymethyl-pyridin-3-yl)-3,4-dihydro-2H-isoquinolin-1-one], for which the EC50 was 217 nM at human CYP11B1 and 20.1 nM on human CYP11B2.

With `CCC(=O)NCc1cncc(N2C(=O)c3ccc(Cl)cc3C23CC3)c1` [Example 396, N-{[5-(6′-Chloro-3′-oxospiro [cyclopropane-1,1′-isoindol]-2′(3′H)-yl)pyridin-3-yl]methyl} propanamide], the values for the EC50 on human CYP11B1 and at human CYP11B2 were 5250 nM and 207 nM, respectively.

Take `CS(=O)(=O)NC1CCCc2c1cncc2N1Cc2cc(Cl)ccc2C1=O` (single isomer, unassigned) [Example 326, N-[(S or R)-4-(5-Chloro-1-oxo-1,3-dihydro-isoindol-2-yl)-5,6,7,8-tetrahydro-isoquinolin-8-yl]-methanesulfonamide]: the EC50 on human CYP11B1 was 6610 nM; on human CYP11B2, 1870 nM.

As to `COC(c1ccncc1N1CCc2cc(Cl)ccc2C1=O)C1CC1` (stereo not drawn) [Example 78, 6-Chloro-2-[4-(cyclopropyl-methoxy-methyl)-pyridin-3-yl]-3,4-dihydro-2H-isoquinolin-1-one], the EC50 is 1450 nM on human CYP11B1 and 761 nM at human CYP11B2.

As to `CC1(C)c2cc(Cl)ccc2C(=O)N1c1cncc(CO)c1` [Example 133, 5-Chloro-2-(5-hydroxymethyl-pyridin-3-yl)-3,3-dimethyl-2,3-dihydro-isoindol-1-one], the concentration for a half-maximal effect (EC50) is 1370 nM at human CYP11B1 and 98.6 nM at human CYP11B2.

As to `CCS(=O)(=O)N1CC[C@H](Oc2cncc(N3C(=O)c4ccc(Cl)cc4C3(C)C)c2)C1` [Example 448, 5-Chloro-2-[5-((S)-1-ethanesulfonyl-pyrrolidin-3-yloxy)-pyridin-3-yl]-3,3-dimethyl-2,3-dihydro-isoindol-1-one], the results for the EC50 at human CYP11B1 and at human CYP11B2 were 1980 nM and 21.2 nM, respectively.

As for `O=C1c2ccc(Cl)cc2CCN1c1cncc(N2CC[C@@H](O)C2)c1` [Example 137, 6-Chloro-2-[5-((R)-3-hydroxy-pyrrolidin-1-yl)-pyridin-3-yl]-3,4-dihydro-2H-isoquinolin-1-one], the EC50 on human CYP11B1 was found to be 108 nM; on human CYP11B2 it was 10.1 nM.

For `Cc1ncccc1C(=O)NCc1cncc(N2C(=O)c3ccc(Cl)cc3C2(C)C)c1` [Example 439, N-[5-(6-Chloro-1,1-dimethyl-3-oxo-1,3-dihydro-isoindol-2-yl)-pyridin-3-ylmethyl]-2-methyl-nicotinamide], the values for the EC50 at human CYP11B1 and at human CYP11B2 were 6900 nM and 119 nM, respectively.

On to `CCC(=O)N[C@@H]1CCCc2c1cncc2N1C(=O)c2ccc(Cl)cc2[C@@H]1CC` (single isomer, unassigned) [Example 353, N-[(R or S)-4-((S or R)-5-Chloro-3-ethyl-1-oxo-1,3-dihydro-isoindol-2-yl)-5,6,7,8-tetrahydro-isoquinolin-8-yl]-propionamide], for which the values for the EC50 at human CYP11B1 and on human CYP11B2 were 16200 nM and 396 nM, respectively.
